The supplement of paper PMC10307832

Key:
Assay in all cases: relative viability (nuclei count vs DMSO), 5 days (fraction); higher = more cells survive
IU1-47 + Trametinib = compound: CC1=CC(=C(N1C2=CC=C(C=C2)Cl)C)C(=O)CN3CCCCC3 [IU1-47] + CC(=O)Nc1cccc(-n2c(=O)n(C3CC3)c(=O)c3c(Nc4ccc(I)cc4F)n(C)c(=O)c(C)c32)c1 [Trametinib] (partner 0.02 µM)
Summary of the method: (§1)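 The day after seeding in 1536-well plates, lung cancer cell lines were treated by pin tool with a single drug, or with a fixed anchor-drug dose together with five library-drug doses (not always all listed) in √10 steps. After 5 days, a combined fix-and-stain solution (final 0.05% Triton X-100, 1% formaldehyde, 1 ug/ml Hoechst) was added. Nuclei counted on 4× images gave relative viability as treated counts over vehicle counts, reported as the median of duplicate plates.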

IU1-47 + Phenformin = compound: CC1=CC(=C(N1C2=CC=C(C=C2)Cl)C)C(=O)CN3CCCCC3 [IU1-47] + N=C(N)NC(=N)NCCc1ccccc1 [Phenformin] (partner 250 µM)
Summary of the method: as §1

IU1-47 + Alpelisib = compound: CC1=CC(=C(N1C2=CC=C(C=C2)Cl)C)C(=O)CN3CCCCC3 [IU1-47] + Cc1nc(NC(=O)N2CCC[C@H]2C(N)=O)sc1-c1ccnc(C(C)(C)C(F)(F)F)c1 [Alpelisib] (partner 2 µM)
Summary of the method: as §1

FG-4592 + Vorinostat = compound: Cc1nc(C(=O)NCC(=O)O)c(O)c2ccc(Oc3ccccc3)cc12 [FG-4592] + O=C(CCCCCCC(=O)Nc1ccccc1)NO [Vorinostat] (partner 1 µM)
Summary of the method: as §1

Cell Line	relative viability (IU1-47 + Trametinib; first compound 0.08 µM)	relative viability (IU1-47 + Trametinib; first compound 0.253 µM)	relative viability (IU1-47 + Trametinib; first compound 0.8 µM)	relative viability (IU1-47 + Trametinib; first compound 2.53 µM)	relative viability (IU1-47 + Trametinib; first compound 8 µM)	relative viability (IU1-47 + Phenformin; first compound 0.08 µM)	relative viability (IU1-47 + Phenformin; first compound 0.253 µM)	relative viability (IU1-47 + Phenformin; first compound 0.8 µM)	relative viability (IU1-47 + Phenformin; first compound 2.53 µM)	relative viability (IU1-47 + Phenformin; first compound 8 µM)	relative viability (IU1-47 + Alpelisib; first compound 0.08 µM)	relative viability (IU1-47 + Alpelisib; first compound 0.253 µM)	relative viability (IU1-47 + Alpelisib; first compound 0.8 µM)	relative viability (IU1-47 + Alpelisib; first compound 2.53 µM)	relative viability (IU1-47 + Alpelisib; first compound 8 µM)	relative viability (FG-4592 + Vorinostat; first compound 0.253 µM)	relative viability (FG-4592 + Vorinostat; first compound 0.8 µM)	relative viability (FG-4592 + Vorinostat; first compound 2.53 µM)	relative viability (FG-4592 + Vorinostat; first compound 8 µM)	relative viability (FG-4592 + Vorinostat; first compound 0.08 µM)
NCI-H322M	0.547	0.487	0.503	0.464	0.55	0.825	0.768	0.789	0.809	0.633	0.802	0.82	0.805	0.755	0.831	0.823	0.772	0.898	0.822	
NCI-H358	0.129	0.13	0.128	0.135	0.121	0.328	0.323	0.339	0.307	0.274	0.917	0.877	0.91		0.682	0.567	0.745	0.88	0.716	0.61
NCI-H441	0.37	0.338	0.395	0.595	0.439	0.994	0.978	0.787	0.887	0.787	0.672	0.82	0.616	0.92	0.779	0.809	0.855	0.694	0.696	0.692
NCI-H460	0.134	0.127	0.2	0.129	0.18	0.599	0.536	0.614	0.532	0.313	0.564	0.575	0.532	0.587	0.488	0.691	0.771	0.748	0.755	0.707
NCI-H520	0.661	0.671	0.821	0.456	0.633	0.602	0.484	0.59	0.626	0.346	0.947	0.948	1.03	0.907	0.726	0.709	0.635	0.702	0.673	0.693
NCI-H596	0.765		0.779	0.834	0.677	0.786	0.61	0.78	0.709	0.677	0.638	0.44	0.0053	0.429	0.49	0.507		0.637	0.584	0.441
NCI-H647	0.459	0.432	0.489	0.405	0.443	0.449	0.597		0.553	0.238	1.18	1.21	1.19	1.07	0.383	0.366	0.551	0.486	0.237	0.35
NCI-H650	0.96	0.958	0.863	0.91	1.06	0.489	0.483	0.466	0.491	0.476	1.28	1.14	1.2	1.09	1.01	0.574	0.384	0.339	0.365	0.352
NCI-H661	0.576	0.57	0.576	0.464	0.471	0.286	0.295	0.28	0.245	0.291	0.909	0.603	0.581	0.593	0.404	0.827	0.832	0.755	0.839	0.778
NCI-H727	0.438	0.349	0.369	0.375	0.368	0.675	0.712	0.56	0.63	0.387	0.712		0.647	0.626	0.377	1.17	1.28	1.33	1.21	1.07
NCI-H838	0.521	0.472	0.581	0.501	0.53	0.559	0.578	0.549	0.562	0.318	1.04	1.03	1.05	1.08	0.859	0.729	0.696	0.839	0.705	0.742
NCI-H1355	0.432	0.441	0.386		0.35	0.432	0.501	0.441		0.398	0.89	0.948	0.894	0.797	0.79	0.632		0.596	0.644	0.553
NCI-H1395	1.16	1.13	1.06	0.914	0.803	0.408	0.456	0.472	0.436	0.374	1.07	1.01	1.04		0.991	0.771	0.493	0.675	0.623	0.729
NCI-H1437	0.48	0.485	0.556	0.391	0.496	0.337	0.272	0.25	0.341	0.297	1.13	0.967	0.921	1.05	0.718	0.786	0.912	0.894	0.722	0.751
NCI-H1651	0.885	0.856	0.806	0.824	0.811	0.342	0.308	0.373	0.319	0.297	1.05	1.1	0.899		0.597	0.596	0.546	0.469	0.538	0.597
